Measured values taken from US7423182B2, “Aminated polyamines” (University of Florida, priority 2004, dated 2008).
Where two headings read alike, the source gives them in different places.

Tests used:
[1] = tested on: Polyamine pools in L1210 cells; experiment: Effect on polyamine pools in L1210 cells; format: cell-based; conditions: 48 h of treatment
L1210 cells = experiment: L1210 cell growth inhibition; format: cell-based; conditions: Mus musculus
[2] = mice, three weeks after a seven day schedule; cited from earlier work
[3] = tested on: Polyamine pools in L1210 cells; conditions: 48 h of treatment, cited from earlier work

With `CCNCCCNCCC(N)CNCCCNCC` (stereo not shown) [6-NH2-DESPM, 6 amino-N^1,N^12-diethylspermine] the PUT ([1]; 10 µM) was 39 ± 9% of untreated controls, the SPD ([1]; 10 µM) was 16 ± 3% of untreated controls and the SPM ([1]; 10 µM) was 54 ± 11% of untreated controls. For the same molecule, the PUT ([1]; 50 µM) was 26 ± 1% of untreated controls, the SPD ([1]; 50 µM) was 7 ± 0% of untreated controls and the SPM ([1]; 50 µM) was 32 ± 1% of untreated controls. The IC50 (L1210 cells; 48 h, read-out: IC50 48 h) was 8 µM and the IC50 (L1210 cells; 96 h, read-out: IC50 96 h) was 0.4 µM.

In the case of `CCNCCCCNCCCCNCCCCNCC` [DEHSPM, Diethylhomospermine], the “drug administered remaining in the liver and kidney as drug or metabolites” value [2] is listed as 35% and the “drug remaining in the animal in the form of HSPM” value [2] is listed as 90%.

In the case of `CCNCCCNCCCCNCCCNCC` [DESPM], the PUT ([3]; 30 µM) is given as 0% of untreated controls, the SPD ([3]; 30 µM) is given as 0% of untreated controls and the SPM ([3]; 30 µM) is given as 12% of untreated controls. For the same molecule, the PUT ([3]; 150 µM) was 0% of untreated controls, the SPD ([3]; 150 µM) was 0% of untreated controls and the SPM ([3]; 150 µM) was 14% of untreated controls.

In the case of `FC(F)(F)CNCCCNCCCCNCCCNCC(F)(F)F` [FDESPM], the PUT ([3]; 100 µM) is given as 100% of untreated controls, the SPD ([3]; 100 µM) is given as 103% of untreated controls and the SPM ([3]; 100 µM) is given as 108% of untreated controls.
